Experimental data reported in ChEMBL document CHEMBL1122946, “Folate antagonists. 21. Synthesis and antimalarial properties of 2,4-diamino-6-(benzylamino)pyrido[3,2-d]pyrimidines” (1985).

Assays:
[1] = test system: Mus musculus; assay: Mean survival time against trophozoite induced Plasmodium berghei in mice minus control was evaluated at a dose 40 mg/kg.; assay type: functional
[2] = test system: Mus musculus; assay: Mean survival time against trophozoite induced Plasmodium berghei in mice minus control was evaluated at a dose 640 mg/kg; 9 survived out of 15 animals at 60 days postinjection.; assay type: functional, organism-based; design: dose 640 mg/kg
[3] = test system: Mus musculus; assay: Mean survival time against trophozoite induced Plasmodium berghei in mice minus control was evaluated at a dose 320 mg/kg; 3 survived out of 5 animals at 60 days postinjection; assay type: functional, organism-based; design: dose 320 mg/kg
[4] = test system: Mus musculus; assay: Mean survival time against trophozoite induced Plasmodium berghei in mice minus control was evaluated at a dose 160 mg/kg; 6 survived out of 15 animals at 60 days postinjection; assay type: functional, organism-based; design: dose 160 mg/kg
[5] = test system: Mus musculus; assay: Mean survival time against trophozoite induced Plasmodium berghei in mice minus control was evaluated at a dose 80 mg/kg; 1 survived out of 5 animals at 60 days postinjection; assay type: functional, organism-based; design: dose 80 mg/kg
[6] = test system: Mus musculus; assay: Mean survival time against trophozoite induced Plasmodium berghei in mice minus control was evaluated at a dose 20 mg/kg.; assay type: functional
[7] = test system: Mus musculus; assay: Mean survival time against trophozoite induced Plasmodium berghei in mice minus control was evaluated at a dose 640 mg/kg.; assay type: functional
[8] = test system: Mus musculus; assay: Mean survival time against trophozoite induced Plasmodium berghei in mice minus control was evaluated at a dose 40 mg/kg; assay type: functional
[9] = test system: Mus musculus; assay: Mean survival time against trophozoite induced Plasmodium berghei in mice minus control was evaluated at a dose 160 mg/kg; assay type: functional
[10] = test system: Mus musculus; assay: Mean survival time against trophozoite induced Plasmodium berghei in mice minus control was evaluated at a dose 160 mg/kg; 5 survived out of 5 animals at 60 days postinjection.; assay type: functional, organism-based; design: dose 160 mg/kg
[11] = test system: Mus musculus; assay: Mean survival time against trophozoite induced Plasmodium berghei in mice minus control was evaluated at a dose 40 mg/kg; 5 survived out of 5 animals at 60 days postinjection.; assay type: functional, organism-based; design: dose 40 mg/kg
[12] = test system: Mus musculus; assay: Mean survival time against trophozoite induced Plasmodium berghei in mice minus control was evaluated at a dose 640 mg/kg; 5 survived out of 5 animals at 60 days postinjection.; assay type: functional, organism-based; design: dose 640 mg/kg
[13] = test system: Mus musculus; assay: Mean survival time against trophozoite induced Plasmodium berghei in mice minus control was evaluated at a dose 20 mg/kg; 3 survived out of 5 animals at 60 days postinjection; assay type: functional, organism-based; design: dose 20 mg/kg
[14] = test system: Mus musculus; assay: Mean survival time against trophozoite induced Plasmodium berghei in mice minus control was evaluated at a dose 80 mg/kg; 5 survived out of 5 animals at 60 days postinjection.; assay type: functional, organism-based; design: dose 80 mg/kg
[15] = test system: Mus musculus; assay: Mean survival time against trophozoite induced Plasmodium berghei in mice minus control was evaluated at a dose 320 mg/kg; 5 survived out of 5 animals at 60 days postinjection.; assay type: functional, organism-based; design: dose 320 mg/kg
[16] = test system: Mus musculus; assay: Mean survival time against trophozoite induced Plasmodium berghei in mice minus control was evaluated at a dose 640 mg/kg; 7 survived out of 10 animals at 60 days postinjection.; assay type: functional, organism-based; design: dose 640 mg/kg
[17] = test system: Mus musculus; assay: Mean survival time against trophozoite induced Plasmodium berghei in mice minus control was evaluated at a dose 80 mg/kg.; assay type: functional
[18] = test system: Mus musculus; assay: Mean survival time against trophozoite induced Plasmodium berghei in mice minus control was evaluated at a dose 320 mg/kg.; assay type: functional
[19] = test system: Mus musculus; assay: Mean survival time against trophozoite induced Plasmodium berghei in mice minus control was evaluated at a dose 160 mg/kg.; assay type: functional
[20] = test system: Mus musculus; assay: Mean survival time against trophozoite induced Plasmodium berghei in mice minus control was evaluated at a dose 2.5 mg/kg.; assay type: functional
[21] = test system: Mus musculus; assay: Mean survival time against trophozoite induced Plasmodium berghei in mice minus control was evaluated at a dose 10 mg/kg.; assay type: functional
[22] = test system: Mus musculus; assay: Mean survival time against trophozoite induced Plasmodium berghei in mice minus control was evaluated at a dose 1.25 mg/kg.; assay type: functional
[23] = test system: Mus musculus; assay: Mean survival time against trophozoite induced Plasmodium berghei in mice minus control was evaluated at a dose 40 mg/kg; 10 survived out of 10 animals at 60 days postinjection.; assay type: functional, organism-based; design: dose 40 mg/kg
[24] = test system: Mus musculus; assay: Mean survival time against trophozoite induced Plasmodium berghei in mice minus control was evaluated at a dose 20 mg/kg; 8 survived out of 10 animals at 60 days postinjection.; assay type: functional, organism-based; design: dose 20 mg/kg
[25] = test system: Mus musculus; assay: Mean survival time against trophozoite induced Plasmodium berghei in mice minus control was evaluated at a dose 5 mg/kg.; assay type: functional
[26] = test system: Mus musculus; assay: Mean survival time against trophozoite induced Plasmodium berghei in mice minus control was evaluated at a dose 20 mg/kg; 4 survived out of 10 animals at 60 days postinjection.; assay type: functional, organism-based; design: dose 20 mg/kg
[27] = test system: Mus musculus; assay: Mean survival time against trophozoite induced Plasmodium berghei in mice minus control was evaluated at a dose 40 mg/kg; 6 survived out of 15 animals at 60 days postinjection.; assay type: functional, organism-based; design: dose 40 mg/kg
[28] = test system: Mus musculus; assay: Mean survival time against trophozoite induced Plasmodium berghei in mice minus control was evaluated at a dose 160 mg/kg; 10 survived out of 10 animals at 60 days postinjection.; assay type: functional, organism-based; design: dose 160 mg/kg
[29] = test system: Mus musculus; assay: Mean survival time against trophozoite induced Plasmodium berghei in mice minus control was evaluated at a dose 320 mg/kg; 5 survived out of 10 animals at 60 days postinjection.; assay type: functional, organism-based; design: dose 320 mg/kg
[30] = test system: Mus musculus; assay: Mean survival time against trophozoite induced Plasmodium berghei in mice minus control was evaluated at a dose 640 mg/kg; 10 survived out of 10 animals at 60 days postinjection.; assay type: functional, organism-based; design: dose 640 mg/kg
[31] = test system: Mus musculus; assay: Mean survival time against trophozoite induced Plasmodium berghei in mice minus control was evaluated at a dose 640 mg/kg; 5 toxic death occurred out of 5 animals on days 2-5 after injection.; assay type: functional, organism-based; design: dose 640 mg/kg
[32] = test system: Mus musculus; assay: Mean survival time against trophozoite induced Plasmodium berghei in mice minus control was evaluated at a dose 20 mg/kg; 8 survived out of 15 animals at 60 days postinjection.; assay type: functional, organism-based; design: dose 20 mg/kg
[33] = test system: Mus musculus; assay: Mean survival time against trophozoite induced Plasmodium berghei in mice minus control was evaluated at a dose 320 mg/kg; 10 survived out of 10 animals at 60 days postinjection.; assay type: functional, organism-based; design: dose 320 mg/kg
[34] = test system: Mus musculus; assay: Mean survival time against trophozoite induced Plasmodium berghei in mice minus control was evaluated at a dose 80 mg/kg; 10 survived out of 10 animals at 60 days postinjection.; assay type: functional, organism-based; design: dose 80 mg/kg
[35] = test system: Mus musculus; assay: Mean survival time against trophozoite induced Plasmodium berghei in mice minus control was evaluated at a dose 40 mg/kg; 15 survived out of 15 animals at 60 days postinjection.; assay type: functional, organism-based; design: dose 40 mg/kg

CN(Cc1cccc(Br)c1)c1ccc2nc(N)nc(N)c2n1
Delta MST [1]: 9.8 days | Delta MST [2]: Survivals 9/15 | Delta MST [3]: Survivals 3/5 | Delta MST [4]: Survivals 6/15 | Delta MST [5]: Survivals 1/5 | Delta MST [6]: 9.1 days

CN(Cc1ccc(Cl)cc1)c1ccc2nc(N)nc(N)c2n1
Delta MST [7]: 1.3 days | Delta MST [8]: 1.1 days | Delta MST [9]: 1.1 days

CN(Cc1cccc(Cl)c1)c1ccc2nc(N)nc(N)c2n1
Delta MST [10]: Survivals 5/5 | Delta MST [11]: Survivals 5/5 | Delta MST [12]: Survivals 5/5 | Delta MST [13]: Survivals 3/5 | Delta MST [14]: Survivals 5/5 | Delta MST [15]: Survivals 5/5

Nc1nc(N)c2nc(NCc3ccc(Cl)c(Cl)c3)ccc2n1
Delta MST [16]: Survivals 7/10 | Delta MST [1]: 1.8 days | Delta MST [17]: 4.9 days | Delta MST [18]: 15.3 days | Delta MST [19]: 12.4 days | Delta MST [6]: 0.5 days

CN(Cc1ccc(Cl)c(Cl)c1)c1ccc2nc(N)nc(N)c2n1
Delta MST [10]: Survivals 5/5 | Delta MST [20]: 4.3 days | Delta MST [21]: 11.9 days | Delta MST [22]: 2.9 days | Delta MST [23]: Survivals 10/10 | Delta MST [14]: Survivals 5/5 | Delta MST [24]: Survivals 8/10 | Delta MST [15]: Survivals 5/5 | Delta MST [25]: 9.1 days

Nc1nc(N)c2nc(N(C=O)Cc3ccc(Cl)c(Cl)c3)ccc2n1
Delta MST [26]: Survivals 4/10 | Delta MST [20]: 5.3 days | Delta MST [27]: Survivals 6/15 | Delta MST [21]: 16.3 days | Delta MST [28]: Survivals 10/10 | Delta MST [29]: Survivals 5/10 | Delta MST [22]: 1.9 days | Delta MST [30]: Survivals 10/10 | Delta MST [14]: Survivals 5/5 | Delta MST [25]: 14.1 days

Nc1nc(N)c2nc(N3CCCCC3)ccc2n1
Delta MST [1]: 0.3 days | Delta MST [31]: Toxic Deaths 5/5 | Delta MST [19]: 0.4 days

CN(Cc1ccc(Cl)c(Cl)c1)c1ccc2nc(N)nc(N)c2c1
Delta MST [21]: 8.7 days | Delta MST [28]: Survivals 10/10 | Delta MST [12]: Survivals 5/5 | Delta MST [32]: Survivals 8/15 | Delta MST [33]: Survivals 10/10 | Delta MST [34]: Survivals 10/10 | Delta MST [35]: Survivals 15/15
